Assay results from patent publication US20170339955A1, “Substituted N-(tetrazol-5-yl)- and N-(triazol-5-yl)arylcarboxamide compounds and their use as herbicides” (BASF SE, priority 2012, published 2017).

Columns and labels:
Assay type in all cases: in vivo
[1] = system: Amaranthus retroflexus L. (pigweed); test: Greenhouse post-emergence treatment of Amaranthus retroflexus L. (pigweed); settings: application rate 1000 g/ha, scale 0 (no damage) to 100 (complete destruction)
Source text: (§1) The culture containers used were plastic flowerpots containing loamy sand with approximately 3.0% of humus as the substrate. The seeds of the test plants were sown separately for each species.
(§2) For the post-emergence treatment, the test plants were first grown to a height of 3 to 15 cm, depending on the plant habit, and only then treated with the active ingredients which had been suspended or emulsified in water. For this purpose, the test plants were either sown directly and grown in the same containers, or they were first grown separately as seedlings and transplanted into the test containers a few days prior to treatment.
(§3) Depending on the species, the plants were kept at 10-25° C. or 20-35° C. The test period extended over 2 to 4 weeks. During this time, the plants were tended, and their response to the individual treatments was evaluated.
(§4) Evaluation was carried out using a scale from 0 to 100. 100 means no emergence of the plants, or complete destruction of at least the aerial moieties, and 0 means no damage, or normal course of growth. A good herbicidal activity is given at values of at least 70 and a very good herbicidal activity is given at values of at least 85.

[2] = system: Amaranthus retroflexus L. (pigweed); test: Greenhouse pre-emergence treatment of Amaranthus retroflexus L. (pigweed); settings: application rate 1000 g/ha, scale 0 (no damage) to 100 (no emergence/complete destruction)
Source text: as §1
(§5) For the pre-emergence treatment, the active ingredients, which had been suspended or emulsified in water, were applied directly after sowing by means of finely distributing nozzles. The containers were irrigated gently to promote germination and growth and subsequently covered with transparent plastic hoods until the plants had rooted. This cover caused uniform germination of the test plants, unless this has been impaired by the active ingredients.
as §3, §4

[3] = system: Abutilon theophrasti (velvetleaf); test: Greenhouse post-emergence treatment of Abutilon theophrasti (velvetleaf); settings: application rate 1000 g/ha, scale 0 (no damage) to 100 (complete destruction)
Source text: as §1, §2, §3, §4

[4] = system: Echinochloa crus-galli (barnyard grass); test: Greenhouse post-emergence treatment of Echinochloa crus-galli (barnyard grass); settings: application rate 1000 g/ha, scale 0 (no damage) to 100 (complete destruction)
Source text: as §1, §2, §3, §4

[5] = system: Abutilon theophrasti (velvetleaf); test: Greenhouse pre-emergence treatment of Abutilon theophrasti (velvetleaf); settings: application rate 1000 g/ha, scale 0 (no damage) to 100 (no emergence/complete destruction)
Source text: as §1, §5, §3, §4

Row | Compound | damage [%] [1] [%] | damage [%] [2] [%] | damage [%] [3] [%] | damage [%] [4] [%] | damage [%] [5] [%]
1 | Cn1nnnc1NC(=O)c1c(F)cc(Cl)c(S(C)(=O)=O)c1Cl [V.A.-41, 2,4-dichloro-6-fluoro-3-methylsulfonyl-n-(1-methyltetrazol-5-yl)benzamide] | 100 | 100 | 100 | – | –
2 | Cn1ncnc1NC(=O)c1cc(F)c(Cl)cc1Cl [I.A-5] | 85 | – | 75 | 90 | –
3 | Cn1nnnc1NC(=O)c1cc(F)c(Cl)cc1Cl [V.A-5] | 100 | 100 | 100 | – | –
4 | Cn1ncnc1NC(=O)c1c(F)ccc(Cl)c1Cl [I.A-1441] | 100 | 100 | 75 | – | –
5 | CSc1c(Cl)cc(F)c(C(=O)Nc2nnnn2C)c1Cl [V.A-1442, 2,4-dichloro-6-fluoro-3-methylsulfanyl-n-(1-methyltetrazol-5-yl)benzamide] | 100 | – | 100 | – | 100
6 | Cn1ncnc1NC(=O)c1c(F)cc(Cl)c(S(C)(=O)=O)c1Cl [I.A-41, 2,4-dichloro-6-fluoro-3-methylsulfonyl-n-(2-methyl-1,2,4-triazol-3-yl)benzamide] | 100 | – | 100 | – | 95
7 | Cn1ncnc1NC(=O)c1c(F)cc(Cl)cc1Cl [I.A-1] | 100 | 80 | 100 | – | –
